Reference: patent publication US10287617B2, “Methods for in vitro—in vivo efficacy determination” (COLORADO STATE UNIVERSITY RESEARCH FOUNDATION, priority 2014, dated 2019)
Several values for one entry are separate records, joined by “and”; a condition that tells them apart may be missing. Equal entries are not always repeated.

Legend:
M. tuberculosis Erdman = format: in vivo; conditions: SB-P17G-A20 50 mg/kg IP bid, INH 20 mg/kg IP qd, days 5 to 14 post-infection
M. tuberculosis H37Rv [1] = format: cell-based, Mycobacterium tuberculosis; conditions: 2×10^9 cells plated on 1.6 μg/mL (10 times MIC)
M. tuberculosis H37Rv [2] = format: cell-based; conditions: SB-P17G-A20 with rifampicin

| SMILES | reduction in bacterial load in the lungs (M. tuberculosis Erdman) | reduction in bacterial load in the spleen (M. tuberculosis Erdman) | spontaneous resistant mutants (M. tuberculosis H37Rv [1]) | enhancement of activity in the presence of the other drug (M. tuberculosis H37Rv [2]) | ΣFIC (M. tuberculosis H37Rv [2]) |
| --- | --- | --- | --- | --- | --- |
| NNC(=O)c1ccncc1 [Isoniazid, reference compound] | below the level of detection | below the level of detection | – | – | – |
| CN(C)c1cc2nc(C3CCCCC3)[nH]c2cc1NC(=O)c1ccc(OC(F)(F)F)cc1 [SB-P17G-A20] | 1.73±0.24 log10 CFU and 1.73 log10 CFU | 2.68 log10 CFU and 2.68±0.48 log10 CFU | No mutants where observed | 2-4 fold | 0.75 |
| CCCCOC(=O)Nc1cc2nc(C3CCCCC3)[nH]c2cc1N(C)C [SB-P17G-C2] | no significant reduction | no significant reduction | – | – | – |
